Measured values reported in PubChem BioAssay AID1745844 (Carcinogenic Potency Database (CPDB), 2022).
Active and inactive are the calls of the source. No rule for the calls is given here.

Test system: rodent lifetime carcinogenesis bioassay, tumor incidence TD50
Assay: chronic cancer bioassays in animals – CPDB, compiled studies (AID 1745844)
[1] = mouse, strain B6C3F1, females, by gavage, site: any site (literature study), lesion: several types, types named in the paper, dosed 103 weeks, study length 104 weeks
[2] = mouse, strain B6C3F1, females, by gavage, site: lung, lesion: alveolar/bronchiolar adenoma + alveolar/bronchiolar carcinoma, dosed 103 weeks, study length 104 weeks
[3] = mouse, strain B6C3F1, males, by gavage, site: any site (literature study), lesion: several types, types named in the paper, dosed 103 weeks, study length 104 weeks
[4] = rat, strain Fischer 344, females, by gavage, site: any site (literature study), lesion: several types, types named in the paper, dosed 103 weeks, study length 104 weeks
[5] = rat, strain Fischer 344, males, by gavage, site: any site (literature study), lesion: several types, types named in the paper, dosed 103 weeks, study length 104 weeks

`Nc1ccc([N+](=O)[O-])cc1O` was tested, and the TD50 [1] was 5760 mg/kg/day (inactive), the TD50 [2] was 807000 mg/kg/day and the carcinogen call [3] was “negative (inactive)”. For the same compound, the carcinogen call [4] was “negative (inactive)”, the TD50 (rat, strain Fischer 344, males, by gavage, site: adrenal medulla, lesion: pheochromocytoma + pheochromocytoma, malignant, dosed 103 weeks, study length 104 weeks) was 101 mg/kg/day and the TD50 [5] was 33.6 mg/kg/day. For the same compound, the TD50 (rat, strain Fischer 344, males, by gavage, site: liver, lesion: hepatocellular adenoma + hepatocellular carcinoma + neoplastic nodule, dosed 103 weeks, study length 104 weeks) was 1560 mg/kg/day, the TD50 (rat, strain Fischer 344, males, by gavage, site: pancreas, lesion: acinar-cell adenoma, dosed 103 weeks, study length 104 weeks) was 111 mg/kg/day and the TD50 (rat, strain Fischer 344, males, by gavage, site: pancreas, lesion: acinar-cell carcinoma + acinar-cell adenoma, dosed 103 weeks, study length 104 weeks) was 107 mg/kg/day. For the same compound, the TD50 (rat, strain Fischer 344, males, by gavage, site: pancreatic islets, lesion: islet-cell carcinoma, dosed 103 weeks, study length 104 weeks) was 393 mg/kg/day, the TD50 (rat, strain Fischer 344, males, by gavage, site: preputial gland, lesion: adenoma, NOS + carcinoma, NOS, dosed 103 weeks, study length 104 weeks) was 392 mg/kg/day and the TD50 (rat, strain Fischer 344, males, by gavage, site: preputial gland, lesion: carcinoma, NOS, dosed 103 weeks, study length 104 weeks) was 562 mg/kg/day. For the same compound, the TD50 (rat, strain Fischer 344, males, by gavage, site: testis, lesion: interstitial-cell tumor, dosed 103 weeks, study length 104 weeks) was 28.6 mg/kg/day.

Work on `OCCN(CCO)c1nc(-c2cccs2)nc2ccccc12` yielded a TD50 (rat, strain Sprague-Dawley, females, in feed, site: any site (literature study), lesion: several types, types named in the paper, dosed 46 weeks, study length 66 weeks) of 60.1 mg/kg/day.

In the case of `COc1cccc(O)c1O`, the TD50 (rat, strain F344/DuCrj, males, in feed, site: forestomach, lesion: squamous-cell papilloma, dosed 51 weeks, study length 51 weeks) is reported as 425 mg/kg/day and the TD50 (rat, strain F344/DuCrj, males, in feed, site: stomach, glandular, lesion: adenoma, dosed 51 weeks, study length 51 weeks) is reported as 48.7 mg/kg/day.

For `CN(C)c1ccccc1`, the TD50 [1] was 108 mg/kg/day, the TD50 (mouse, strain B6C3F1, females, by gavage, site: forestomach, lesion: squamous-cell papilloma, dosed 103 weeks, study length 104 weeks) was 99.3 mg/kg/day and the TD50 (mouse, strain B6C3F1, females, by gavage, site: liver, lesion: hepatocellular adenoma + hepatocellular carcinoma + neoplastic nodule, dosed 103 weeks, study length 104 weeks) was 163 mg/kg/day. The TD50 [2] was 276 mg/kg/day, the TD50 [3] was 489 mg/kg/day (inactive) and the TD50 (mouse, strain B6C3F1, males, by gavage, site: liver, lesion: hepatocellular adenoma + hepatocellular carcinoma + neoplastic nodule, dosed 103 weeks, study length 104 weeks) was 216 mg/kg/day. The TD50 (mouse, strain B6C3F1, males, by gavage, site: lung, lesion: alveolar/bronchiolar adenoma + alveolar/bronchiolar carcinoma, dosed 103 weeks, study length 104 weeks) was 102 mg/kg/day, the carcinogen call [4] was “negative (inactive)” and the TD50 [5] was 93.2 mg/kg/day. It also gave a TD50 (rat, strain Fischer 344, males, by gavage, site: splenic red pulp, lesion: osteosarcoma + sarcoma, NOS, dosed 103 weeks, study length 104 weeks) of 125 mg/kg/day and a TD50 (rat, strain Fischer 344, males, by gavage, site: splenic red pulp, lesion: sarcoma, NOS, dosed 103 weeks, study length 104 weeks) of 175 mg/kg/day.

In the case of `O`, the TD50 (mouse, strain B6C3F1, females, in drinking water, site: any site (literature study), lesion: several types, types named in the paper, dosed 104 weeks, study length 105 weeks) is reported as 806 mg/kg/day (inactive), the TD50 (mouse, strain B6C3F1, females, in drinking water, site: liver, lesion: hepatocellular adenoma + hepatoblastoma + hepatocellular carcinoma, dosed 104 weeks, study length 105 weeks) is reported as 4410 mg/kg/day and the TD50 (mouse, strain B6C3F1, females, in drinking water, site: lung, lesion: alveolar/bronchiolar adenoma + alveolar/bronchiolar carcinoma, dosed 104 weeks, study length 105 weeks) is reported as 13400 mg/kg/day. The carcinogen call (mouse, strain B6C3F1, females, in feed, site: all sites, lesion: lymphoma and leukemia, combined, dosed 96 weeks, study length 104 weeks) was “negative (inactive)”, the carcinogen call (mouse, strain B6C3F1, females, in feed, site: liver, lesion: hemangioma, dosed 96 weeks, study length 104 weeks) was “negative (inactive)” and the TD50 (mouse, strain B6C3F1, females, in feed, site: liver, lesion: hemangiosarcoma, dosed 96 weeks, study length 104 weeks) was 57500 mg/kg/day (inactive). The carcinogen call (mouse, strain B6C3F1, females, in feed, site: liver, lesion: hepatocellular carcinoma, dosed 96 weeks, study length 104 weeks) was “negative (inactive)”, the TD50 (mouse, strain B6C3F1, females, in feed, site: liver, lesion: hyperplastic nodule, dosed 96 weeks, study length 104 weeks) was 60500 mg/kg/day (inactive) and the TD50 (mouse, strain B6C3F1, females, in feed, site: lung, lesion: adenocarcinoma, dosed 96 weeks, study length 104 weeks) was 260000 mg/kg/day (inactive). For the same compound, the TD50 (mouse, strain B6C3F1, females, in feed, site: lung, lesion: adenoma, dosed 96 weeks, study length 104 weeks) was 100000 mg/kg/day (inactive), the TD50 (mouse, strain B6C3F1, males, in drinking water, site: all sites, lesion: hemangioma, dosed 103 weeks, study length 103 weeks) was 3470 mg/kg/day (inactive) and the TD50 (mouse, strain B6C3F1, males, in feed, site: all sites, lesion: lymphoma and leukemia, combined, dosed 96 weeks, study length 104 weeks) was 10700 mg/kg/day (inactive). The TD50 (mouse, strain B6C3F1, males, in feed, site: liver, lesion: hemangioma, dosed 96 weeks, study length 104 weeks) was 24400 mg/kg/day (inactive), the TD50 (mouse, strain B6C3F1, males, in feed, site: liver, lesion: hemangiosarcoma, dosed 96 weeks, study length 104 weeks) was 46700 mg/kg/day (inactive) and the carcinogen call (mouse, strain B6C3F1, males, in feed, site: liver, lesion: hepatocellular carcinoma, dosed 96 weeks, study length 104 weeks) was “negative (inactive)”. For the same compound, the carcinogen call (mouse, strain B6C3F1, males, in feed, site: liver, lesion: hyperplastic nodule, dosed 96 weeks, study length 104 weeks) was “negative (inactive)”, the carcinogen call (mouse, strain B6C3F1, males, in feed, site: lung, lesion: adenocarcinoma, dosed 96 weeks, study length 104 weeks) was “negative (inactive)” and the TD50 (mouse, strain B6C3F1, males, in feed, site: lung, lesion: adenoma, dosed 96 weeks, study length 104 weeks) was 87600 mg/kg/day (inactive). The carcinogen call (rat, strain Fischer 344, females, in drinking water, site: any site (literature study), lesion: several types, types named in the paper, dosed 105 weeks, study length 105 weeks) was “negative (inactive)” and the carcinogen call (rat, strain Fischer 344, males, in drinking water, site: any site (literature study), lesion: several types, types named in the paper, dosed 104 weeks, study length 104 weeks) was “negative (inactive)”.
